From patent US20240041042A1, “1-(PYRIDYL)-5-AZINYLPYRAZOLE DERIVATIVES, AND THEIR USE FOR CONTROL OF UNDESIRED PLANT GROWTH” (Bayer Aktiengesellschaft, priority 2020, published 2024)
Read-outs that look alike come from different tables or passages of the source. One block for each compound: values may come before it.

Experiments:
Assay type in all cases: in vivo
[1] = test system: Alopecurus myosuroides (ALOMY); experiment: Pre-emergence herbicidal action against ALOMY; conditions: scored visually after about 3 weeks, 100% = plants have died
Method in brief: (§1)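 Herbicide applied to soil before seedling emergence, at 600 l/ha spray volume with 0.5% additive and rates up to 320 g/ha. Evaluation: visual percentage effect, about 3 weeks later, greenhouse-grown pots compared with untreated ones.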

[2] = test system: Amaranthus retroflexus (AMARE); experiment: Pre-emergence herbicidal action against AMARE; conditions: visual scoring after about 3 weeks vs untreated controls
Method in brief: as §1

Avena fatua (AVEFA) [3] = experiment: Pre-emergence herbicidal action against AVEFA; conditions: 320 g/ha, visual scoring after about 3 weeks vs untreated controls
Method in brief: as §1

[4] = test system: Echinochloa crus-galli (ECHCG); experiment: Pre-emergence herbicidal action against ECHCG; conditions: dosage 320 g/ha
Method in brief: as §1

Lolium rigidum (LOLRI) [5] = experiment: Pre-emergence herbicidal action against LOLRI; conditions: dosage 320 g/ha
Method in brief: as §1

[6] = test system: Polygonum convolvulus (POLCO); experiment: Pre-emergence herbicidal action against POLCO
Method in brief: as §1

Setaria viridis (SETVI) [7] = experiment: Pre-emergence herbicidal action against SETVI; conditions: dosage 320 g/ha
Method in brief: as §1

[8] = test system: Verconica persica (VERPE); experiment: Pre-emergence herbicidal action against VERPE; conditions: dosage 320 g/ha
Method in brief: as §1

Viola tricolor (VIOTR) [9] = experiment: Pre-emergence herbicidal action against VIOTR
Method in brief: as §1

Zea mays (ZEAMX) [10] = conditions: pre-emergence, 80 g/ha, crop plant compatibility, in comparison to untreated controls
Method in brief: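 Scoring: visual, % of untreated control, about 3 weeks after a pre-emergence application to the soil surface. Application used WP or EC formulations diluted in water with 0.5% additive at 600 l/ha; dosage levels are marked by suffixes a, b and c.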

[11] = test system: Echinochloa crus-galli (ECHCG); experiment: Post-emergence herbicidal action against ECHCG
Method in brief: (§2)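 Rates were 320 g/ha or below, applied as aqueous WP/EC spray with 0.5% additive (600 l/ha) onto one-leaf-stage plants. About 3 weeks later in the greenhouse, damage was scored visually against untreated plants on a 0–100% scale, where 100% means plants died.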

Setaria viridis (SETVI) [12] = experiment: Post-emergence herbicidal action against SETVI
Method in brief: as §2

Oryza sativa (ORYSA) = conditions: crop plant compatibility
Method in brief: (§3)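 Foliar application at the one-leaf stage: WP/EC formulation, 0.5% additive, 600 l/ha water. Greenhouse-grown in sandy loam. Endpoint is visual % injury relative to untreated controls at about 3 weeks.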

[13] = test system: Triticum aestivum (TRZAS); conditions: crop plant compatibility, 20 g/ha, effect vs untreated controls
Method in brief: as §3

Zea mays (ZEAMX) [14] = conditions: for Post-emergence action against ZEAMX in % (crop plant compatibility): 20 g/ha, effect in comparison to untreated controls; for Post-emergence action against ZEAMX in %: crop plant compatibility, 80 g/ha, effect vs untreated controls
Method in brief: as §3

Brassica napus (BRSNW) = experiment: Post-emergence crop plant compatibility, BRSNW; conditions: 20 g/ha, effect in comparison to untreated controls
Description: Seeds of monocotyledonous and dicotyledonous weeds and crop plants are placed in sandy loam in plastic or organic planting pots, covered with soil and cultivated in a greenhouse under controlled growth conditions. 2 to 3 weeks after sowing, the test plants are treated at the one-leaf stage. The compounds of the invention, formulated in the form of wettable powders (WP) or as emulsion concentrates (EC), are then sprayed onto the green parts of the plants as aqueous suspension or emulsion with addition of 0.5% additive at a water application rate of 600 l/ha (converted). After the test plants have been kept in the greenhouse under optimum growth conditions for about 3 weeks, the activity of the preparations is rated visually in comparison to untreated controls. For example, 100% activity=the plants have died, 0% activity=like control plants.
The observed effects on selected crop plants are reported here in comparison to the untreated controls (values in %). The appendices “a”, “b” and “c” give differentiation by dosage used with otherwise the same crop plants tested.

[15] = test system: Abutilon theophrasti (ABUTH); experiment: Post-emergence herbicidal action against ABUTH; conditions: 320 g/ha, visual rating about 3 weeks after treatment vs untreated controls (100% = plants have died, 0% = like control plants)
Method in brief: as §2

[16] = test system: Alopecurus myosuroides (ALOMY); experiment: Post-emergence herbicidal action against ALOMY; conditions: visual rating about 3 weeks after treatment vs untreated controls (100% = plants have died, 0% = like control plants)
Method in brief: as §2

Avena fatua (AVEFA) [17] = experiment: Post-emergence herbicidal action against AVEFA; conditions: visual rating about 3 weeks after treatment
Method in brief: as §2

[18] = test system: Digitaria sanguinalis (DIGSA); experiment: Post-emergence herbicidal action against DIGSA; conditions: 320 g/ha, visual rating about 3 weeks after treatment
Method in brief: as §2

Lolium rigidum (LOLRI) [19] = experiment: Post-emergence herbicidal action against LOLRI
Method in brief: as §2

[20] = test system: Matricaria inodora (MATIN); experiment: Post-emergence herbicidal action against MATIN; conditions: dosage 320 g/ha
Method in brief: as §2

[21] = test system: Pharbitis purpurea (PHBPU); experiment: Post-emergence herbicidal action against PHBPU
Method in brief: as §2

[22] = test system: Polygonum convolvulus (POLCO); experiment: Post-emergence herbicidal action against POLCO; conditions: dosage 320 g/ha
Method in brief: as §2

[23] = test system: Verconica persica (VERPE); experiment: Post-emergence herbicidal action against VERPE
Method in brief: as §2

Viola tricolor (VIOTR) [24] = experiment: Post-emergence herbicidal action against VIOTR
Method in brief: as §2

[25] = 20 g/ha, effect vs untreated controls
[26] = 80 g/ha, effect in comparison to untreated controls

Pre-emergence action against ZEAMX in % (Zea mays (ZEAMX) [10]): 20% | Post-emergence action against ORYSA in % (Oryza sativa (ORYSA); [25]): 20% | Post-emergence action against ORYSA in % (Oryza sativa (ORYSA); [26]): 20% | Post-emergence action against TRZAS in % [13]: 10% | Post-emergence action against ZEAMX in % (crop plant compatibility) (Zea mays (ZEAMX) [14]): 10% | Post-emergence action against ZEAMX in % (Zea mays (ZEAMX) [14]): 10% | Post-emergence action against BRSNW in % (Brassica napus (BRSNW)): 10%
Structure (SMILES): CCOC(=O)CCNC(=O)COc1nn(-c2ncccc2F)c(-c2ccc(OC)nc2)c1Br [Example I-47]
Pre-emergence action against ALOMY ([1]; 80 g/ha): 90% | Pre-emergence action against ALOMY ([1]; 320 g/ha): 90% | Pre-emergence action against AMARE in % ([2]; 80 g/ha): 100% | Pre-emergence action against AMARE in % ([2]; 320 g/ha): 100% | Pre-emergence action against AVEFA in % (Avena fatua (AVEFA) [3]): 90% | Pre-emergence action against ECHCG in % [4]: 90% | Pre-emergence action against LOLRI in % (Lolium rigidum (LOLRI) [5]): 100% | Pre-emergence action against POLCO in % ([6]; dosage 80 g/ha): 80% | Pre-emergence action against POLCO in % ([6]; dosage 320 g/ha): 90% | Pre-emergence action against SETVI in % (Setaria viridis (SETVI) [7]): 100% | Pre-emergence action against VERPE in % [8]: 90% | Pre-emergence action against VIOTR in % (Viola tricolor (VIOTR) [9]; 320 g/ha, Viola tricolor): 100% | Pre-emergence action against VIOTR in % (Viola tricolor (VIOTR) [9]; dosage 80 g/ha): 100% | Post-emergence action against ECHCG in % ([11]; dosage 80 g/ha): 80% | Post-emergence action against SETVI in % (Setaria viridis (SETVI) [12]; dosage 80 g/ha): 90%

Post-emergence action against ORYSA in % (Oryza sativa (ORYSA); [25]): 0% | Post-emergence action against ORYSA in % (Oryza sativa (ORYSA); [26]): 10% | Post-emergence action against TRZAS in % [13]: 20% | Post-emergence action against ZEAMX in % (crop plant compatibility) (Zea mays (ZEAMX) [14]): 0% | Post-emergence action against ZEAMX in % (Zea mays (ZEAMX) [14]): 10% | Post-emergence action against BRSNW in % (Brassica napus (BRSNW)): 20%
Structure (SMILES): O=C(COc1nn(-c2ncccc2F)c(-c2ccc(F)nc2)c1C1CC1)OCC1CCOC1 (stereo not drawn) [Example I-289]
Post-emergence action against ABUTH in % [15]: 80% | Post-emergence action against ALOMY in % ([16]; 80 g/ha): 80% | Post-emergence action against ALOMY in % ([16]; 320 g/ha): 90% | Post-emergence action against AVEFA in % (Avena fatua (AVEFA) [17]; 80 g/ha): 80% | Post-emergence action against AVEFA in % (Avena fatua (AVEFA) [17]; 320 g/ha): 90% | Post-emergence action against DIGSA in % [18]: 80% | Post-emergence action against ECHCG in % ([11]; dosage 80 g/ha): 80% | Post-emergence action against ECHCG in % ([11]; dosage 320 g/ha): 80% | Post-emergence action against LOLRI in % (Lolium rigidum (LOLRI) [19]; dosage 80 g/ha): 80% | Post-emergence action against LOLRI in % (Lolium rigidum (LOLRI) [19]; dosage 320 g/ha): 90% | Post-emergence action against MATIN in % [20]: 90% | Post-emergence action against PHBPU in % ([21]; dosage 80 g/ha): 80% | Post-emergence action against PHBPU in % ([21]; dosage 320 g/ha): 80% | Post-emergence action against POLCO in % [22]: 80% | Post-emergence action against SETVI in % (Setaria viridis (SETVI) [12]; dosage 80 g/ha): 90% | Post-emergence action against SETVI in % (Setaria viridis (SETVI) [12]; dosage 320 g/ha): 90% | Post-emergence action against VERPE in % ([23]; 320 g/ha, VERPE): 80% | Post-emergence action against VERPE in % ([23]; dosage 80 g/ha): 80% | Post-emergence action against VIOTR in % (Viola tricolor (VIOTR) [24]; 80 g/ha): 80% | Post-emergence action against VIOTR in % (Viola tricolor (VIOTR) [24]; 320 g/ha): 80%
